From patent publication US20070004715A1, “Novel spiro-quinuclidinyl derivatives for the treatment of central nervous system disorders” (priority 2005, published 2007)
Where a name gives a salt, the structure may show the parent alone.

Tests used:
[1] = test system: Synaptosomes from guinea pig hippocampus; assay: % Inhibition of AcH Release Assay (K+-evoked 3H-acetylcholine release); type: cell-based; conditions: synaptosomes pre-treated with 10 μM test compound prior to 65 mM K+ stimulation
Protocol: Synaptosomes from guinea pig hippocampus were incubated with 0.1 μM ^3H-choline and then subjected to repeated washes with buffer to remove unincorporated ^3H-choline. The synaptosomes were then treated with 65 mM K^+ for 30 seconds to elicit 3H-acetylcholine release.
To determine if a test compound will inhibit acetylcholine release, the synaptosomes were pre-treated with 10 μM of the test compound prior to the K+ stimulation. The decrease or increase in acetylcholine release was then measured by superfusion.
(§1) Both the Aβ aggregation assay as described in Example 55, particularly as run using the ^125I-Aβ1-40, and the % inhibition of AcH release assay as described in Example 56, were highly variable on a run-to-run basis. However, the relative activities of the tested compounds were reproducible.

fluo-Aβ1-40 = target: T1, fluo-Aβ1-40 (Homo sapiens, UniProt P05067); assay: Aβ Aggregation Assay (Synthaloid plates, fluo-Aβ1-40); type: biochemical; conditions: 10 μM test compound, 100 nM fluo-Aβ1-40, 2.5 hr at room temperature; higher % = greater effectiveness at preventing aggregation
T1 construct: added 100 nM of fluo-Aβ1-40 in 100 μl
T1 sequence (P05067 672-711): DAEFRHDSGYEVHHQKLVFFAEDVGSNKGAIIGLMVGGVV
Protocol: Aβs are known to form aggregates leading to the formation of amyloid plaques that are characteristic of Alzheimer's disease.
This aggregation assay was validated using both ^125I-Aβ1-40 and fluo-Aβ1-40 in a buffer containing 50 mM HEPES, pH 7.4, 0.1% BSA, 10% FCS and protease inhibitors.
To each well of a 96-well Synthaloid plate was added 100 nM of fluo-Aβ1-40 in 100 μl. To each well was then added 10 μM of test compound. The plate was then allowed to incubate for 2.5 hr at room temperature. At the end of the incubation, unbound protein in the wells was removed by three washes using the buffer as described above. The amount of bound protein (which represents the amount of Aβ aggregation) was measured either by fluorescence measurements.
Higher fluorescence values relative to vehicle wells were interpreted as an indication of greater Aβ aggregation. […] Higher % values in the data in Table 4 below, below indicates greater effectiveness at preventing aggregation.
as §1

Row | Structure (SMILES) | Inhibition of acetylcholine release [1] [%] | Aβ aggregation inhibition (%) (fluo-Aβ1-40)
1 | CCOC(=O)CN1C(=O)OC2(CN3CCC2CC3)C1=O (stereo not drawn) [Compound 30, 3′-(2-ethoxycarbonylmethyl)-quinuclidine-3-spiro-5′-oxazolidine-2′,4′-dione hydrochloride] | 21 | 100
2 | N=C1CC2(CN3CCC2CC3)OC(=O)N1c1ccc(Cl)c(Cl)c1 (stereo not drawn) [Compound 104, 3′-(3,4-dichlorophenyl)-quinuclidine-3-spiro-4′-iminooxan-2-ones trifluoroacetate salt] | 43 | 0
3 | Cc1cc(C)cc(N2C(=N)CC3(CN4CCC3CC4)OC2=O)c1 (stereo not drawn) [Compound 106, 3′-(3,5-dimethylphenyl)-quinuclidine-3-spiro-4′-iminooxan-2-ones trifluoroacetate salt] | 18 | 80
4 | O=C1OC2(CN3CCC2CC3)C(=O)N1c1cc(Cl)ccc1Cl (stereo not drawn) [Compound 12, 3′-(2,5-dichlorophenyl)-quinuclidine-3-spiro-5′-oxazolidine-2′,4′-dione trifluoroacetate salt] | 17 | 85
5 | Cc1ccc(N2C(=O)OC3(CN4CCC3CC4)C2=O)cc1C (stereo not drawn) [Compound 16, 3′-(3,4-dimethylphenyl)-quinuclidine-3-spiro-5′-oxazolidine-2′,4′-dione trifluoroacetate salt] | 44 | 67
6 | N=C1CC2(CN3CCC2CC3)OC(=O)N1c1cc(Cl)cc(Cl)c1 (stereo not drawn) [Compound 107, 3′-(3,5-dichlorophenyl)-quinuclidine-3-spiro-4′-iminooxan-2-ones trifluoroacetate salt] | 54 | 30
7 | O=C1OC2(CN3CCC2CC3)C(=O)N1c1cccc([N+](=O)[O-])c1 (stereo not drawn) [Compound 6, 3′-(3-nitrophenyl)-quinuclidine-3-spiro-5′-oxazolidine-2′,4′-dione trifluoroacetate salt] | 64 | 21
8 | Cc1cccc(N2C(=O)OC3(CN4CCC3CC4)C2=O)c1C (stereo not drawn) [Compound 27, 3′-(2,3-dimethylphenyl)-quinuclidine-3-spiro-5′-oxazolidine-2′,4′-dione trifluoroacetate salt] | 25 | 35
9 | CCOC(=O)c1cccc(N2C(=O)OC3(CN4CCC3CC4)C2=O)c1 (stereo not drawn) [Compound 13, 3′-(3-ethoxycarbonylphenyl)-quinuclidine-3-spiro-5′-oxazolidine-2′,4′-dione trifluoroacetate salt] | 20 | 100
10 | COc1cccc(N2C(=O)OC3(CN4CCC3CC4)C2=O)c1 (stereo not drawn) [Compound 14, 3′-(3-methoxyphenyl)-quinuclidine-3-spiro-5′-oxazolidine-2′,4′-dione trifluoroacetate salt] | 14 | 42
11 | O=C1OC2(CN3CCC2CC3)C(=O)N1c1cccc(O)c1 (stereo not drawn) [Compound 15, 3′-(3-hydroxyphenyl)-quinuclidine-3-spiro-5′-oxazolidine-2′,4′-dione trifluoroacetate salt] | 55 | 50
12 | Cc1cc(C)cc(N2C(=O)OC3(CN4CCC3CC4)C2=O)c1 (stereo not drawn) [Compound 20, 3′-(3,5-dimethylphenyl)-quinuclidine-3-spiro-5′-oxazolidine-2′,4′-dione trifluoroacetate salt] | 53 | 0
13 | O=C1OC2(CN3CCC2CC3)C(=O)N1c1ccccc1F (stereo not drawn) [Compound 9, 3′-(2-fluorophenyl)-quinuclidine-3-spiro-5′-oxazolidine-2′,4′-dione trifluoroacetate salt] | 16 | 100
14 | N=C1CC2(CN3CCC2CC3)OC(=O)N1c1cccc(Cl)c1 (stereo not drawn) [Compound 108, 3′-(3-chlorophenyl)-quinuclidine-3-spiro-4′-iminooxan-2-ones trifluoroacetate salt] | 63 | 70
15 | Cc1ccccc1N1C(=O)OC2(CN3CCC2CC3)C1=O (stereo not drawn) [Compound 26, 3′-(2-methylphenyl)-quinuclidine-3-spiro-5′-oxazolidine-2′,4′-dione trifluoroacetate salt] | 54 | 45
16 | O=C1OC2(CN3CCC2CC3)C(=O)N1c1cccc(Cl)c1 (stereo not drawn) [Compound 10, 3′-(3-chlorophenyl)-quinuclidine-3-spiro-5′-oxazolidine-2′,4′-dione trifluoroacetate salt] | 60 | 50
17 | O=C1OC2(CN3CCC2CC3)C(=O)N1c1ccc(O)cc1 (stereo not drawn) [Compound 18, 3′-(4-hydroxyphenyl)-quinuclidine-3-spiro-5′-oxazolidine-2′,4′-dione trifluoroacetate salt] | 23 | 0
18 | O=C1OC2(CN3CCC2CC3)C(=O)N1c1ccc(Cl)c(Cl)c1 (stereo not drawn) [Compound 5, 3′-(3,4-dichlorophenyl)-quinuclidine-3-spiro-5′-oxazolidine-2′,4′-dione trifluoroacetate salt] | 27 | 98
19 | O=C1OC2(CN3CCC2CC3)C(=O)N1c1ccc(F)cc1F (stereo not drawn) [Compound 21, 3′-(2,4-difluorophenyl)-quinuclidine-3-spiro-5′-oxazolidine-2′,4′-dione trifluoroacetate salt] | 17 | 1
20 | Cc1ccc(N2C(=O)OC3(CN4CCC3CC4)C2=O)cc1 (stereo not drawn) [Compound 2, 3′-(4-methylphenyl)-quinuclidine-3-spiro-5′-oxazolidine-2′,4′-dione trifluoroacetate salt] | 74 | 44
21 | O=C1OC2(CN3CCC2CC3)C(=O)N1c1cc(Cl)cc(Cl)c1 (stereo not drawn) [Compound 7, 3′-(3,5-dichlorophenyl)-quinuclidine-3-spiro-5′-oxazolidine-2′,4′-dione trifluoroacetate salt] | 70 | 62
22 | Cc1ccc(N2C(=O)OC3(CN4CCC3CC4)C2=O)cc1Cl (stereo not drawn) [Compound 24, 3′-(3-chloro-4-methylphenyl)-quinuclidine-3-spiro-5′-oxazolidine-2′,4′-dione trifluoroacetate salt] | 44 | 40
23 | CC(C)c1ccccc1N1C(=O)OC2(CN3CCC2CC3)C1=O (stereo not drawn) [Compound 28, 3′-(2-isopropylphenyl)-quinuclidine-3-spiro-5′-oxazolidine-2′,4′-dione trifluoroacetate salt] | 47 | 0
24 | COc1ccc(N2C(=O)OC3(CN4CCC3CC4)C2=O)cc1 (stereo not drawn) [Compound 3, 3′-(4-methoxyphenyl)-quinuclidine-3-spiro-5′-oxazolidine-2′,4′-dione trifluoroacetate salt] | 27 | 100
25 | Cc1cc(O)ccc1N1C(=O)OC2(CN3CCC2CC3)C1=O (stereo not drawn) [Compound 19, 3′-(4-hydroxy-2-methylphenyl)-quinuclidine-3-spiro-5′-oxazolidine-2′,4′-dione trifluoroacetate salt] | 27 | 0
26 | Cc1ccc(N2C(=N)CC3(CN4CCC3CC4)OC2=O)cc1 (stereo not drawn) [Compound 101, 3′-(4-methylphenyl)-quinuclidine-3-spiro-4′-iminooxan-2-ones trifluoroacetate salt] | 24 | 27
27 | COc1ccc(OC)c(N2C(=O)OC3(CN4CCC3CC4)C2=O)c1 (stereo not drawn) [Compound 29, 3′-(2,5-dimethoxyphenyl)-quinuclidine-3-spiro-5′-oxazolidine-2′,4′-dione trifluoroacetate salt] | 20 | 100
28 | O=C1OC2(CN3CCC2CC3)C(=O)N1c1cccc(F)c1 (stereo not drawn) [Compound 25, 3′-(3-fluorophenyl)-quinuclidine-3-spiro-5′-oxazolidine-2′,4′-dione trifluoroacetate salt] | 48 | 5
29 | COc1ccc(N2C(=N)CC3(CN4CCC3CC4)OC2=O)cc1 (stereo not drawn) [Compound 100, 3′-(4-methoxyphenyl)-quinuclidine-3-spiro-4′-iminooxan-2-ones trifluoroacetate salt] | 34 | 48
30 | O=C1OC2(CN3CCC2CC3)C(=O)N1c1cccc(C(F)(F)F)c1 (stereo not drawn) [Compound 1, 3′-(3-trifluoromethylphenyl)-quinuclidine-3-spiro-5′-oxazolidine-2′,4′-dione trifluoroacetate salt] | 36 | 100
